Among the test systems are A498 renal; HCT-15 colon; HL-60(TB) leukemia; HOP-62 NSCLC; K-562 leukemia; LOX IMVI melanoma; SF-539 CNS; UACC-62 melanoma; TK-10 renal; EKVX NSCLC.
Assay in all cases: NCI anticancer screen, dose series, 48 h

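Results reflect a 48-hour exposure of cells in 96-well plates to compound at five concentrations. GI50 = concentration required for 50% inhibition of growth. TGI denotes the concentration required for complete inhibition of growth.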 A value given as a limit tells only on which side of the number the result lay.

As to `O=C1[C@H]2ON(c3ccccc3)C(c3ccccc3)[C@H]2C(=O)N1c1ccc(Cc2ccc(N3C(=O)[C@@H]4ON(c5ccccc5)C(c5ccccc5)[C@@H]4C3=O)cc2)cc1` (stereo partly specified), the TGI with A498 renal, in the test on HCT-15 colon, with HL-60(TB) leukemia, in the test on HOP-62 NSCLC, in the test with K-562 leukemia and with LOX IMVI melanoma was > 100 µM throughout. The TGI in the test with SF-539 CNS and in the test on UACC-62 melanoma was > 100 µM each time.

As for `CC(=O)N1C/C(=C/c2ccc(Cl)cc2)C(=O)/C(=C/c2ccc(Cl)cc2)C1`, the GI50 was 1.41 µM with A498 renal; 0.446 µM in the test with HCT-15 colon; 0.924 µM in the test with HL-60(TB) leukemia; 0.516 µM with HOP-62 NSCLC; 0.335 µM in the test on K-562 leukemia; 0.184 µM in the test on LOX IMVI melanoma. The GI50 in the test on SF-539 CNS was 0.785 µM; in the test on TK-10 renal, 1.94 µM; in the test on UACC-62 melanoma, 0.664 µM. Besides, the TGI in the test on A498 renal is 2.89 µM; in the test with HCT-15 colon, 1.52 µM; in the test with HL-60(TB) leukemia it was 3.95 µM; with HOP-62 NSCLC, 1.25 µM; with K-562 leukemia, > 100 µM; in the test on LOX IMVI melanoma, 0.395 µM. Further, the TGI with SF-539 CNS came out at 2.03 µM; in the test on TK-10 renal, 4.1 µM; in the test on UACC-62 melanoma, 1.84 µM.

On to `O=C1O/C(=C\c2ccccc2)N(c2ccccc2)C1=O`, for which the TGI with A498 renal, in the test with EKVX NSCLC, with HCT-15 colon, in the test with HL-60(TB) leukemia, in the test with HOP-62 NSCLC and in the test with K-562 leukemia was > 100 µM in each case. Also, the TGI in the test with LOX IMVI melanoma, in the test on TK-10 renal and in the test with UACC-62 melanoma was > 100 µM each time.

As for `O=C1Cc2c([nH]c3ccccc23)-c2ccccc2N1`, the TGI was > 100 µM with A498 renal; > 100 µM in the test with EKVX NSCLC; > 100 µM with HCT-15 colon; > 100 µM in the test on HL-60(TB) leukemia; 97.7 µM in the test with HOP-62 NSCLC; > 100 µM with K-562 leukemia. The TGI with LOX IMVI melanoma is 37.7 µM; in the test on SF-539 CNS it was 55.2 µM; in the test on TK-10 renal, > 100 µM.

Take `COc1cc2c(cc1OC)-c1ccc3cc4c(cc3c1N(CCCn1ccnc1)C2)OCO4`: the GI50 is 7.66 µM in the test with A498 renal; 31.9 µM in the test on EKVX NSCLC; 58.3 µM with HCT-15 colon; 1.92 µM with HL-60(TB) leukemia; 2.03 µM in the test with HOP-62 NSCLC; 1.62 µM in the test on LOX IMVI melanoma. The GI50 in the test on SF-539 CNS is 2.11 µM; with TK-10 renal it was 25.2 µM; in the test with UACC-62 melanoma it was 0.67 µM. Besides, the TGI with A498 renal is 27.1 µM; in the test with EKVX NSCLC it was > 100 µM; in the test on HCT-15 colon it was > 100 µM; in the test with HL-60(TB) leukemia it was 5.71 µM; with HOP-62 NSCLC, 13.6 µM; with LOX IMVI melanoma, 4.7 µM. In addition, the TGI turned out to be 7.36 µM in the test with SF-539 CNS, 60.5 µM with TK-10 renal and 2.72 µM in the test on UACC-62 melanoma.

On to `Cc1ccc(NC2=C(Cl)C(=O)N(Cc3ccc(Cl)cc3)C2=O)cc1O`, for which the GI50 in the test on A498 renal was 11.9 µM; with HL-60(TB) leukemia it was 54.8 µM; in the test on HOP-62 NSCLC it was 9.99 µM; in the test on K-562 leukemia it was 61.8 µM; with LOX IMVI melanoma, 4.09 µM; in the test on SF-539 CNS it was 3.1 µM. For the same compound, the figures for the GI50 in the test with TK-10 renal and with UACC-62 melanoma were 15.2 µM and 17.5 µM, respectively. Also, the TGI was 25.9 µM in the test with A498 renal; > 100 µM with HL-60(TB) leukemia; 26.4 µM with HOP-62 NSCLC; > 100 µM in the test on K-562 leukemia; 32.1 µM in the test with LOX IMVI melanoma; 16.2 µM in the test with SF-539 CNS. For the same compound, the figures for the TGI in the test with TK-10 renal and in the test on UACC-62 melanoma were 32.4 µM and 39.4 µM, respectively.

Take `Cc1cc(=O)oc2c(C)c(O)ccc12`: the TGI in the test on A498 renal, in the test on EKVX NSCLC, in the test on HCT-15 colon, with HL-60(TB) leukemia, in the test on HOP-62 NSCLC and in the test with K-562 leukemia was > 100 µM throughout. Besides, the TGI in the test on LOX IMVI melanoma, in the test on SF-539 CNS and in the test with UACC-62 melanoma was > 100 µM in each case.

Turning to `O=C1c2ccccc2-c2oc(=O)c3ccccc3c21`, the TGI with A498 renal, with EKVX NSCLC, in the test with HCT-15 colon, in the test on HL-60(TB) leukemia, with HOP-62 NSCLC and with LOX IMVI melanoma was > 100 µM in each case. The TGI in the test with SF-539 CNS, with TK-10 renal and in the test on UACC-62 melanoma was > 100 µM each time.

In the case of `O=S(=O)(NCCCNc1nccc(-c2c(-c3ccc(F)c(O)c3)nc3sccn23)n1)c1ccc(F)cc1`, the GI50 was 2.86 µM in the test on A498 renal; 3.1 µM in the test on EKVX NSCLC; 2.42 µM with HCT-15 colon; 1.86 µM with HL-60(TB) leukemia; 2.78 µM in the test on HOP-62 NSCLC; 1.98 µM with K-562 leukemia. Also, the results for the GI50 with LOX IMVI melanoma, with SF-539 CNS and with TK-10 renal were 0.578 µM, 3.5 µM and 4.33 µM, respectively. Moreover, the TGI with A498 renal was 6.81 µM; in the test on EKVX NSCLC, 14.9 µM; in the test on HCT-15 colon, 10.8 µM; with HL-60(TB) leukemia, 5.26 µM; in the test on HOP-62 NSCLC, 8.7 µM; with K-562 leukemia it was > 100 µM. For the same compound, the figures for the TGI in the test with LOX IMVI melanoma, in the test on SF-539 CNS and with TK-10 renal were 5.53 µM, 17.4 µM and 86.3 µM, respectively.

On to `CC(=O)CC(N)=O`, for which the TGI with A498 renal, in the test with EKVX NSCLC, in the test on HCT-15 colon, in the test with HL-60(TB) leukemia, in the test on HOP-62 NSCLC and in the test on K-562 leukemia was > 100 µM throughout. The TGI with SF-539 CNS, in the test on TK-10 renal and with UACC-62 melanoma was > 100 µM throughout.

`CC(C)C[C@H](NC(=O)Cn1ccc(NCc2ccccc2)cc1=O)B(O)O`: the GI50 with A498 renal is 0.234 µM; in the test with HCT-15 colon, 2.62 µM; in the test on HL-60(TB) leukemia it was 0.439 µM; with HOP-62 NSCLC, 4.86 µM; in the test on K-562 leukemia, 3.48 µM; in the test with LOX IMVI melanoma, 0.606 µM. Further, the GI50 in the test with SF-539 CNS is 0.296 µM; in the test with TK-10 renal, 0.472 µM; with UACC-62 melanoma it was 1.6 µM. For the same compound, the TGI with A498 renal was 1.59 µM; in the test on HCT-15 colon it was > 41.6 µM; in the test with HL-60(TB) leukemia, 10.7 µM; in the test with HOP-62 NSCLC, 29.5 µM; in the test with K-562 leukemia, > 100 µM; in the test on LOX IMVI melanoma, 2.31 µM. The values for the TGI in the test with SF-539 CNS, with TK-10 renal and with UACC-62 melanoma were 1.13 µM, 5.23 µM and 11.1 µM, respectively.

Source of the values: PubChem BioAssay (NCI).
